Common to all, as to assay type: functional
Test [1] relates to Onchocerca lienalis. Description: MMV: Percent motility assay at a compound concentration of 1.25e-5 M. Activity score legend: 3: Active, 2: Moderately active; 1: Inactive, 0: Toxic. The note with it: at 12.5 µM.
Test [2] deals with Onchocerca lienalis. The test can be described thus: MMV: Percent motility assay at a compound concentration of 3.1e-6 M. Activity score legend: 3: Active, 2: Moderately active; 1: Inactive, 0: Toxic. The settings on record: at 3.1 µM.
Test [3] deals with Onchocerca lienalis. The test can be described thus: MMV: Percent motility assay at a compound concentration of 1.9e-7 M. Activity score legend: 3: Active, 2: Moderately active; 1: Inactive, 0: Toxic. The note with it: at 0.19 µM.
For test [4], the system named is Onchocerca lienalis. Description: MMV: Percent motility assay at a compound concentration of 7.8e-7 M. Activity score legend: 3: Active, 2: Moderately active; 1: Inactive, 0: Toxic. The settings on record: at 0.78 µM.

Structures are written as SMILES.

Take `COc1ccc(Nc2nc(N/N=C/c3ccc(O)cc3)nc(Nc3ccc([N+](=O)[O-])cc3)n2)cc1`: the Motility in the test with Onchocerca lienalis [1], in the test on Onchocerca lienalis [2], in the test on Onchocerca lienalis [3] and in the test on Onchocerca lienalis [4] was 100% in each case.

With `N=c1n(CCN2CCCCC2)c2ccccc2n1CC(=O)c1ccc(Cl)c(Cl)c1`, the Motility in the test with Onchocerca lienalis [1], in the test with Onchocerca lienalis [2], in the test on Onchocerca lienalis [3] and with Onchocerca lienalis [4] was 100% throughout.

On to `Cc1sc(NC(=O)c2ccco2)c(C(c2cccnc2)N2CCC(Cc3ccccc3)CC2)c1C` (stereo not drawn), for which the Motility in the test with Onchocerca lienalis [1], in the test with Onchocerca lienalis [2], in the test with Onchocerca lienalis [3] and with Onchocerca lienalis [4] was 100% in each case.

Consider `COc1cc(C(=O)Nc2nc3c(cc4c5c(cccc53)CC4)s2)cc(OC)c1OC`, for which the Motility with Onchocerca lienalis [1], with Onchocerca lienalis [2], with Onchocerca lienalis [3] and in the test on Onchocerca lienalis [4] was 100% in each case.

On to `O=C(NNc1cc(N2CCCC2)nc(N2CCCC2)n1)c1ccccc1`, for which the Motility in the test with Onchocerca lienalis [1], in the test on Onchocerca lienalis [2], with Onchocerca lienalis [3] and in the test on Onchocerca lienalis [4] was 100% throughout.

In the case of `COC(=O)c1ccc(Cl)c2c1C1C=CCC1C(c1cccc3ccccc13)N2` (stereo not drawn), the Motility in the test with Onchocerca lienalis [1], with Onchocerca lienalis [2], with Onchocerca lienalis [3] and in the test with Onchocerca lienalis [4] was 100% throughout.

In the case of `O=C(CCc1ccccc1)c1ccccc1OCC(O)CN1CCCCC1` (stereo not drawn), the Motility in the test on Onchocerca lienalis [1], in the test on Onchocerca lienalis [2], with Onchocerca lienalis [3] and in the test on Onchocerca lienalis [4] was 100% in each case.

Take `OC1=C2C(=Nc3ccccc3SC2c2ccccc2)c2ccccc21` (stereo not drawn): the Motility in the test on Onchocerca lienalis [1], in the test on Onchocerca lienalis [2], in the test on Onchocerca lienalis [3] and with Onchocerca lienalis [4] was 100% throughout.

Take `COc1cc(C(=O)Nc2ccc(-c3nc4ccccc4[nH]3)cc2)cc(OC)c1OC`: the Motility in the test with Onchocerca lienalis [1], in the test on Onchocerca lienalis [2], in the test on Onchocerca lienalis [3] and in the test with Onchocerca lienalis [4] was 100% each time.

In the case of `COC(=O)c1ccc(C2C3=C(O)CC(c4ccc(F)cc4)CC3=Nc3ccccc3N2C(=O)c2ccccc2)cc1` (stereo not drawn), the Motility in the test on Onchocerca lienalis [1], in the test with Onchocerca lienalis [2], in the test with Onchocerca lienalis [3] and in the test on Onchocerca lienalis [4] was 100% throughout.

Consider `CCOc1ccc(CN2CCN(CC(O)COc3ccc(OCC(O)CN4CCN(Cc5ccc(OCC)cc5)CC4)cc3)CC2)cc1` (stereo not drawn), for which the Motility in the test on Onchocerca lienalis [1], with Onchocerca lienalis [2], with Onchocerca lienalis [3] and in the test with Onchocerca lienalis [4] was 100% in each case.

With `CCCCNc1nc(NC(C)(C)C)nc(NC(C)(C)C)n1`, the Motility in the test on Onchocerca lienalis [1], with Onchocerca lienalis [2], in the test with Onchocerca lienalis [3] and with Onchocerca lienalis [4] was 100% each time.

As for `CC(=O)c1sc(NC(=O)Nc2ccc(C)cc2C)nc1C`, the Motility with Onchocerca lienalis [1], in the test with Onchocerca lienalis [2], with Onchocerca lienalis [3] and in the test with Onchocerca lienalis [4] was 100% in each case.

Consider `Cn1c(C(=O)c2cccc3ccccc23)nc2ccccc21`, for which the Motility in the test with Onchocerca lienalis [1], in the test with Onchocerca lienalis [2], in the test on Onchocerca lienalis [3] and in the test on Onchocerca lienalis [4] was 100% each time.

Turning to `Oc1ccc2ccccc2c1CNc1nc2ccccc2[nH]1`, the Motility with Onchocerca lienalis [1], in the test on Onchocerca lienalis [2], in the test with Onchocerca lienalis [3] and in the test on Onchocerca lienalis [4] was 100% each time.

For `O=C(Nc1ccc(-c2nc3ccccc3[nH]2)cc1)c1ccc(Cl)c(Cl)c1`, the Motility in the test with Onchocerca lienalis [1], in the test with Onchocerca lienalis [2], in the test with Onchocerca lienalis [3] and in the test with Onchocerca lienalis [4] was 100% in each case.

Regarding `OCCNc1nc(Nc2ccc(Cl)c(Cl)c2)nc2ccccc12`, the Motility came to 20% with Onchocerca lienalis [1], 33.33% with Onchocerca lienalis [2], 100% in the test on Onchocerca lienalis [3] and 100% with Onchocerca lienalis [4].

For `Nc1ccc(-c2nc3cc(Oc4ccc(Oc5ccc6[nH]c(-c7ccc(N)cc7)nc6c5)cc4)ccc3[nH]2)cc1`, the Motility in the test on Onchocerca lienalis [1], in the test on Onchocerca lienalis [2], in the test with Onchocerca lienalis [3] and in the test with Onchocerca lienalis [4] was 100% in each case.

For the compound `Cc1cc(N(C)C)nc(Nc2ccc(NC(=O)Nc3ccccc3)cc2)n1`, the Motility with Onchocerca lienalis [1], with Onchocerca lienalis [2], with Onchocerca lienalis [3] and in the test on Onchocerca lienalis [4] was 100% throughout.

Take `COc1cc(C(=O)ON=C(N)Cc2cccc3ccccc23)cc(OC)c1OC`: the Motility with Onchocerca lienalis [1], in the test with Onchocerca lienalis [2], with Onchocerca lienalis [3] and in the test with Onchocerca lienalis [4] was 100% in each case.

As to `Oc1c(C(Nc2ccccn2)c2cccc(Oc3ccccc3)c2)ccc2cccnc12` (stereo not drawn), the Motility in the test on Onchocerca lienalis [1] was determined as 6.66%; in the test on Onchocerca lienalis [2], 100%; in the test on Onchocerca lienalis [3], 100%; with Onchocerca lienalis [4] it was 100%.

On to `COc1cc(-c2nc(-c3ccccc3)c(-c3ccccc3)[nH]2)cc(OC)c1O`, for which the Motility in the test on Onchocerca lienalis [1], in the test on Onchocerca lienalis [2], with Onchocerca lienalis [3] and with Onchocerca lienalis [4] was 100% each time.

As for `Cc1ccc(Nc2nc(N)c3ccccc3n2)cc1Cl`, the Motility with Onchocerca lienalis [1], in the test with Onchocerca lienalis [2], with Onchocerca lienalis [3] and in the test on Onchocerca lienalis [4] was 100% in each case.

Regarding `CCc1ccc(CNCC(O)c2ccccc2)cc1.Cl` (stereo not drawn), the Motility in the test on Onchocerca lienalis [1], in the test on Onchocerca lienalis [2], in the test with Onchocerca lienalis [3] and in the test on Onchocerca lienalis [4] was 100% each time.

For `Br.CCn1c2c(c(=N)c3c1CCC3)CCCC2`, the Motility in the test with Onchocerca lienalis [1], in the test on Onchocerca lienalis [2], with Onchocerca lienalis [3] and in the test with Onchocerca lienalis [4] was 100% each time.

Take `Cc1ccc2c(C)nc(Nc3nc(C)cc(-c4ccccc4)n3)nc2c1`: the Motility in the test with Onchocerca lienalis [1], in the test on Onchocerca lienalis [2], in the test on Onchocerca lienalis [3] and in the test on Onchocerca lienalis [4] was 100% throughout.

On to `CCOc1ccc(Nc2ccnc3cc(Cl)ccc23)cc1`, for which the Motility in the test on Onchocerca lienalis [1], in the test on Onchocerca lienalis [2], in the test on Onchocerca lienalis [3] and in the test with Onchocerca lienalis [4] was 100% throughout.

Consider `Br.Cc1ccc(C)c(-c2csc(Nc3ccc(C)c(C)c3)n2)c1`, for which the Motility with Onchocerca lienalis [1], with Onchocerca lienalis [2], in the test with Onchocerca lienalis [3] and with Onchocerca lienalis [4] was 100% each time.

Regarding `CCCn1c(=N)c(C(=O)NC2CCCCC2)cc2c(=O)n3cccc(C)c3nc21`, the Motility in the test with Onchocerca lienalis [1], in the test with Onchocerca lienalis [2], in the test on Onchocerca lienalis [3] and in the test with Onchocerca lienalis [4] was 100% in each case.

In the case of `Nc1ccn([C@@H]2O[C@H](CO)[C@@H](O)[C@H]2O)c(=O)n1` [CYTIDINE], the Motility with Onchocerca lienalis [1], in the test with Onchocerca lienalis [2], in the test with Onchocerca lienalis [3] and with Onchocerca lienalis [4] was 100% each time.

Consider `O=C(Nc1cccc(C2=NCCN2)c1)Nc1cccc(C2=NCCN2)c1` [IMIDOCARB], for which the Motility in the test with Onchocerca lienalis [1], with Onchocerca lienalis [2], with Onchocerca lienalis [3] and in the test with Onchocerca lienalis [4] was 100% in each case.

For `CN(C)c1ccc(C(O)(c2ccc(N(C)C)cc2)c2ccc(N(C)C)cc2)cc1` [METHYLROSANILINE], the Motility with Onchocerca lienalis [1] came to 100%; with Onchocerca lienalis [2], 100%; with Onchocerca lienalis [3], 100%; in the test with Onchocerca lienalis [4], 66.66%.

Values taken from ChEMBL document CHEMBL3137381, “MMV Box Onchocerca lienalis screening set”.
